We go through 8 molecules from ChEMBL document CHEMBL3046727, “Antifungal and insect antifeedant 2-phenylethanol esters from the liverwort Balantiopsis cancellata from Chile” (J Agric Food Chem, 2005).

Data set [1] has as its system Cladosporium herbarum. The data set can be described thus: Antifungal activity against Cladosporium herbarum assessed as growth inhibition at 23 degC measured after 72 hr. The data set is classed as functional.
The subject of another data set is Spodoptera littoralis. The data set is described as follows: Feeding deterrence in Spodoptera littoralis in compound treated lettuce disk assessed as feeding ratio measured as area consumed of treated disks per area consumed of the control disk at 20 ug/disk by disk choice assay. The format is functional.
In a further data set the test system is Artemia salina. The data set can be described thus: Toxicity in Artemia salina (brine shrimp) measured after 24 hr. The data set is classed as organism-based. Particulars: in vivo.
The test system of data set [2] is Cladosporium herbarum. The data set can be described thus: Antifungal activity against Cladosporium herbarum assessed as growth inhibition at 0.006 mg/mL at 23 degC measured after 72 hr. The data set is classed as functional, organism-based.

Each structure is given as a SMILES string. Active and inactive are the calls of the source. The calls are words filed in the database; no cut-off is given here.

By LC50 is commonly meant the concentration that kills 50% of the test population. In the case of `O=C(OC[C@H](O)c1ccccc1)c1ccccc1`, the MIC in the data set with Cladosporium herbarum [1] is 0.05 mg. Further, the Ratio with Spodoptera littoralis is on record as 0.73. In addition, the LC50 in the data set on Artemia salina amounted to 7.4 ppm.
Consider `O=C(/C=C\c1ccccc1)OCCc1ccccc1`, for which the Ratio with Spodoptera littoralis came to 0.5. The molecule also yielded an LC50 with Artemia salina of less than 2.5 ppm.
Consider `O=C1C2CC=CCC2C(=O)N1SC(Cl)(Cl)Cl` (configuration not stated) [CAPTAN], for which the MIC with Cladosporium herbarum [1] was 0.02 mg.
On to `CS/C=C/C(=O)OCCc1ccccc1` [ISOTACHIN B], for which the “growth inhibition (GI)” value with Cladosporium herbarum [2] was “Active”. Also, the MIC in the data set with Cladosporium herbarum [1] is recorded as 0.006 mg. Also, the Ratio in the data set with Spodoptera littoralis is 0.44. For the same molecule, in the data set on Artemia salina, the LC50 is recorded as less than 2.5 ppm.
In the case of `CC(=O)N1CCN(c2ccc(OCC3COC(Cn4ccnc4)(c4ccc(Cl)cc4Cl)O3)cc2)CC1` (configuration not stated) [KETOCONAZOLE], the MIC in the data set on Cladosporium herbarum [1] is 0.01 mg.
In turn, `Cl[C@H]1[C@H](Cl)[C@@H](Cl)[C@@H](Cl)[C@H](Cl)[C@H]1Cl` [LINDANE] yielded a median lethal concentration (LC50) with Artemia salina of 7.2 ppm.
As for `O=C(OCCc1ccccc1)c1ccccc1` [PHENETHYL BENZOATE], the MIC with Cladosporium herbarum [1] stood at 0.1 mg. Moreover, in the data set with Spodoptera littoralis, the Ratio worked out at 0.56. In addition, in the data set on Artemia salina, the 50% lethal concentration (LC50) is less than 2.5 ppm.
For the molecule `O=C(/C=C/c1ccccc1)OCCc1ccccc1` [PHENETHYL CINNAMATE], in the data set on Spodoptera littoralis, the Ratio was 0.96. Moreover, the LC50 with Artemia salina is on record as less than 2.5 ppm.
